Laboratory results as given in patent US8383658B2, “Isoxazole based neuronal nicotinic receptor ligands and methods of use” (Abbott Laboratories, priority 2008, dated 2013).

Target: T1, human α4β2 (Homo sapiens, UniProt P17787+P43681)
T1 construct: expressed in transfected cells
Assay: Calcium flux assay (FLIPR), potentiation of submaximal agonist response in HEK 293 cells expressing α4β2
Type: cell-based
Conditions: α4β2 PAM; fluorescence response to submaximal nicotine considered as 100%
Description: One manner to characterize α4β2 PAM activity is by characterization in clonal cell lines (for example, human embryonic kidney 293 cells) expressing the human neuronal nicotinic acetylcholine receptor subtype α4β2, particularly by use of Fluorescent Image Plate Reader technology. Effects on calcium flux or membrane potential changes can be assessed. Such assays have been reported and further details for carrying out the assays can be obtained in International Publication No. WO 2006/114400. Another method to identify and characterize allosteric modulator activity is by expressing the α4β2 subunits in Xenopus oocytes, and by measuring electrophysiological effects on ligand-evoked current responses as previously described in Curtis, L., et al., Molecular Pharmacology, 61: 127-135, 2002.
To determine the effectiveness of representative compounds of this invention as ligands for α4β2 PAM activity, the compounds of the invention can be evaluated according to the Calcium Flux Assay described below.
Human embryonic kidney (HEK) 293 cells stably expressing human α4β2 or α3β4 combinations are grown to confluency in 162 cm^2 tissue culture flasks in DMEM media supplemented with 10% FBS and 25 μg/ml zeocin and 200 μg/ml hygromycin B. Cells expressing rat or ferret subunits may also be used. For assessing α3* or α7* selectivity, IMR-32 cells may also be used. IMR-32 neuroblastoma cells (ATCC) are grown to confluency in 162 cm^2 tissue culture flasks in minimum essential media supplemented with 10% FBS and 1 mM sodium pyruvate, 1% non-essential amino acids and 1% antibiotic-antimycotic. For the calcium flux assay, c cells are then dissociated using cell dissociation buffer and 100-150 μl per well of 3.5×10^5 cells/ml cell suspension (˜50,000-100,000 cells/well) was plated into 96-well black plates (poly-D-lysine precoated) with clear bottom and maintained for 24-48 hours in a tissue culture incubator at 37° C. under an atmosphere of 5% CO2: 95% air. Other clonal cell lines or primary cell cultures that express endogenous α4* nicotinic receptors may also be used in this assay. Calcium flux was measured using calcium-3 assay kit (Molecular Devices, Sunnyvale, Calif.) or fluo-4 (Invitrogen). A stock solution of the dye was prepared by dissolving each vial supplied by the vendor in Hank's balanced salt solution buffer (HBSS) or 150 mM NMDG, 20 mM CaCl2 containing 10 mM HEPES. The stock solution was diluted 1:20 using the same buffer before use. The growth media was removed from the cells. The cells were loaded with 100 μl of the dye per well and incubated at room temperature for up to one hour for HEK 293 clonal stable cell lines or 30 minutes-45 minutes at 37° C. for IMR-32 cells. Fluorescence measurements were read simultaneously from all the wells by a Fluorometic Imaging Plate Reader (FLIPR) at an excitation wavelength of 480 nm and an emission wavelength of 520 nm. Baseline fluorescence was measured for the first 6 seconds at which 3× concentrations of modulator/test compounds were added to the cell plate at 50 μl and incubated for five minutes. The fluorescence intensity was captured every second for the first 1 minute followed by every 5 seconds for an additional 4 minutes. This procedure was followed by 50 μl of 4× concentration of agonist and readings were taken for a period of 3-5 minutes as described above.
The ability of test compounds to positively modulate the response (i.e., increase the response) induced by a submaximal concentration of agonist (EC20-30%) such as nicotine is measured. Potentiation is measured based on peak fluorescence responses by screening compounds at fixed concentrations or in a concentration-response manner to derive EC50 values. The concentration dependence of changes in fluorescence responses is fitted by nonlinear regression analysis (GraphPad Prism, San Diego, Calif.) to obtain EC50 values. The degree of potentiation and EC50 values of the test compounds are typically calculated. […]

T1 sequence (P43681 29-627 limits assumed): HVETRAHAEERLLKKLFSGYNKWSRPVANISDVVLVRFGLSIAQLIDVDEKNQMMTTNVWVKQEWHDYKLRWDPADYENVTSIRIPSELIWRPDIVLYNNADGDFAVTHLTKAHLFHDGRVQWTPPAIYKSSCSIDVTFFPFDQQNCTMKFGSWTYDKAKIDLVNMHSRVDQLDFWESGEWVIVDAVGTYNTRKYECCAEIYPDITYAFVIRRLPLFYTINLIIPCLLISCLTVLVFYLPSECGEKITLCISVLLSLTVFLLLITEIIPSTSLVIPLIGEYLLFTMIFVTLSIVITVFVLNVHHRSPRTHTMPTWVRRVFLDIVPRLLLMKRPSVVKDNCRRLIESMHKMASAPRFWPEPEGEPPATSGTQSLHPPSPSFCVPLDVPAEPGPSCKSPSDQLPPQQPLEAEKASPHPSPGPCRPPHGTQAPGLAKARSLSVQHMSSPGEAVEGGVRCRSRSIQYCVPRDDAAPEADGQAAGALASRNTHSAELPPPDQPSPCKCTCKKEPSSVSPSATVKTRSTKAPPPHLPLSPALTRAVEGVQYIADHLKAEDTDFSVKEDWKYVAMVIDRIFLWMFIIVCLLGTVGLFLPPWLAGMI
T1 sequence (P17787 26-502): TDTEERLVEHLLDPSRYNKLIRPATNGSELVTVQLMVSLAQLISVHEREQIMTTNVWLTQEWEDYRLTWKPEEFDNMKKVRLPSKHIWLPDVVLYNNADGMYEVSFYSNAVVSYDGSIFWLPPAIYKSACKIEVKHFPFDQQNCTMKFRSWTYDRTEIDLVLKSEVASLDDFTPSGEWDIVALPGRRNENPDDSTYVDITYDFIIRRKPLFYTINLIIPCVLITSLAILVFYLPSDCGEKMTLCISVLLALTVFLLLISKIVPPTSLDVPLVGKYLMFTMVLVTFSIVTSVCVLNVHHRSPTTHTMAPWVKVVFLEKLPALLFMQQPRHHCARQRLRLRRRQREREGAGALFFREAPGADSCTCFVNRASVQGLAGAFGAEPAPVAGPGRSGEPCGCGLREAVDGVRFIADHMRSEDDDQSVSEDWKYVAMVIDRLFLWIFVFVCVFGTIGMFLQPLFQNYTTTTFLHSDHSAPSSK

## c1cncc(-c2cc(-c3cccnc3)on2)c1 [Example 1, 3,5-Di(pyridin-3-yl)isoxazole]
  Activity (allosteric effects—potentiation of fluorescence responses): a (“a” denotes as activity range from 200-400%)

## CC(=O)c1cccc(-c2cc(-c3cccnc3)no2)c1 [Example 25, 1-(3-(3-(Pyridin-3-yl)isoxazol-5-yl)phenyl)ethanone]
  Activity (allosteric effects—potentiation of fluorescence responses): b (“b” denotes an activity range from 150-200%)

## Fc1ccc(-c2cc(-c3cccnc3)no2)cc1F [Example 16, 5-(3,4-Difluorophenyl)-3-(pyridin-3-yl)isoxazole]
  Activity (allosteric effects—potentiation of fluorescence responses): b (“b” denotes an activity range from 150-200%)

## N#Cc1cccc(-c2cc(-c3cncc(F)c3)no2)c1 [Example 29, 3-(3-(5-Fluoropyridin-3-yl)isoxazol-5-yl)benzonitrile]
  Activity (allosteric effects—potentiation of fluorescence responses): b (“b” denotes an activity range from 150-200%)

## N#Cc1cc(-c2cc(-c3cccnc3)no2)ccc1F [Example 68, 2-Fluoro-5-(3-(pyridin-3-yl)isoxazol-5-yl)benzonitrile]
  Activity (allosteric effects—potentiation of fluorescence responses): a (“a” denotes as activity range from 200-400%)

## Fc1cc(-c2cc(-c3cccnc3)no2)cc(F)c1F [Example 17, 5-(3,4,5-Trifluorophenyl)-3-(pyridin-3-yl)isoxazole]
  Activity (allosteric effects—potentiation of fluorescence responses): a (“a” denotes as activity range from 200-400%)
